The numbers were not newly measured in US20100331419A1, “Combination Therapies for the Treatment of Obesity” (priority 2009, published 2010), which cites them from elsewhere.

For this data set the following is noted: literature studies of weight loss medications.

On to `CCN[C@@H](C)Cc1cccc(C(F)(F)F)c1` [dexfenfluramine], for which the “weight loss of body weight for drug compared with placebo” value (from here on “weight loss … compared with placebo”) is “about 5%”.

For `CCCCCCCCCCC[C@@H](C[C@@H]1OC(=O)[C@H]1CCCCCC)OC(=O)[C@H](CC(C)C)NC=O` [orlistat], the “weight loss … compared with placebo” value is “about 5%”.

Regarding `CC(C)CC(N(C)C)C1(c2ccc(Cl)cc2)CCC1` (stereo not drawn) [sibutramine], the “weight loss … compared with placebo” value was “about 5%”.
